Literature values, collected in patent US7803392B2, “pH-Sensitive mucoadhesive film-forming gels and wax-film composites suitable for topical and mucosal delivery of molecules” (University of Kentucky Research Foundation, priority 2000, dated 2010).

How the values were obtained:
[1] = buccal administration of 5 mg midazolam
[2] = buccal 10 mg midazolam per 2 mL
[3] = subcutaneous injection twice a day for 8 days, patients

Oc1cc(Cl)ccc1Oc1ccc(Cl)cc1Cl [Triclosan, 2,4,4′-Trichloro 2′-hydroxy-diphenyl-ether 5-chloro 2-(2,4-dichlorophenoxy)-phenol]
pKa: 7.9
solubility in alkaline solutions (alkaline solutions): readily soluble
solubility in ethanol (ethanol): soluble
solubility in polyethylene glycol 400 (polyethylene glycol 400): soluble
solubility in water (water): insoluble

Cc1ncc2n1-c1ccc(Cl)cc1C(c1ccccc1F)=NC2 [midazolam]
maximum plasma concentration [1]: 55.9 ng/mL
mean bioavailability [1]: 74.5%
time of maximum plasma concentration [1]: 30 min
average time to stop seizures after administration ([2]; children): 6 min
seizures stopped ([2]; children (30/40 seizures)): 75%

Hirudin
lower overall rate of deep-vein thrombosis than low molecular weight heparin [3]: ~30%
